Results from article PMC8952231 (Pharmaceutics, 2022).

What was measured:
[1] = cited from earlier work; for food effect: previous studies
[2] = tested on: uridine diphosphate glucuronosyltransferase 1A9; details: cited from earlier work
SGLT2:SGLT1 receptor = details: compared with empagliflozin; cited from earlier work
P-gp = details: cited from earlier work
[3] = Randomized, open-label, single-dose crossover pharmacokinetic study; plasma concentrations by LC-MS/MS, non-compartmental analysis; format: in vivo, human; details: for Intra-Participant CV% of AUCinf / Intra-Participant CV% of AUClast / Intra-Participant CV% of Cmax: IC vs. FCDP crossover; for AUC(0-inf) / AUC(0-t) / Cmax / Tmax / half-life: male, human, plasma
Excerpt: Sixty-three healthy male volunteers (age, 19–45 years; body weight > 50 kg) agreed to participate in the study and signed a written informed consent form. Only male participants were recruited to avoid the potential risk of pregnancy. The participants were considered healthy after a detailed physical examination by physicians involving 12-lead electrocardiographs (ECG), vital sign assessments, and laboratory evaluations, including blood chemistry, hematology, and urinalysis. […] The study protocol was approved (IRB No.2019AN0538, clinicaltrial.gov; NCT05066516) by the Institutional Review Board of Anam Hospital, Korea University Medical Center (Seoul, Korea), and all procedures were conducted following the principles described in the Declaration of Helsinki and Good Clinical Practice guidelines.
This study was conducted as a randomized, open-label, single-dose crossover study. All participants were randomly allocated to group A (period 1: individual components (ICs), period 2: FCDP) or group B (period 1: FCDP, period 2: ICs). […] All medications were biopharmaceutical classification system (BCS) III drugs with high solubility and low permeability. […] For FCDP, microcrystalline cellulose and copovidone were used as major excipients.
On day 1 (the day of each drug administration), serial blood samples were drawn immediately before (0 h) and 0.25, 0.5, 0.75, 1, 1.5, 2, 2.5, 3, 4, 6, 8, 12, 24, 48, and 72 h after each dosing to assess the pharmacokinetics of each drug. The collected samples were centrifuged (at 1977× g, 4 °C) for 15 min, and the extracted plasma samples were stored frozen at −60 °C until they were analyzed.
For dapagliflozin analysis, 100 µL plasma was added to a glass tube containing an internal standard (10 µL of 1 mg/mL dapagliflozin-d5) and 1 mL methanol. The samples were vigorously vortexed and centrifuged at 10,770× g for 3 min. Next, 100 µL of the upper layer was transferred to a polypropylene tube with 10 µL of internal standard (dapagliflozin-d5, Toronto Research, Toronto, ON, Canada) and 300 µL of acetonitrile. After vigorous vortexing and centrifugation at 2191× g for 1 min, 200 µL of the upper layer was transferred to another polypropylene tube with 200 µL of ammonium acetate (0.1%, w/v). A 20 µL aliquot of the solution was finally injected into the LC–MS/MS system; 0.1% ammonium acetate and methanol were used for the mobile phase. The gradient elution mode was applied (methanol proportion ranging between 57.5% and 90% in 5 min) with a constant flow rate of 0.4 mL/min. Dapagliflozin was quantified using the multiple reaction monitoring (MRM) mode. The produced transitions were m/z 426.47 → 166.84 for dapagliflozin and m/z 431.50 → 166.85 for dapagliflozin-d5. The linear function of dapagliflozin concentration ranged from 1 to 400 ng/mL with regression correlation coefficients of the calibration curves (R) greater than 0.999. The intra-day and inter-day CV values were below 15%. The lower limit of quantification (LLOQ) using this method was 1 ng/mL.
Linagliptin-^13C-d3 (TLC Pharmaceutical Standards Ltd., Newmarket, ON, Canada) was used as the internal standard, and 100 µL of plasma was added to a glass tube containing the internal standard (10 µL of 1 mg/mL linagliptin-^13C-d3) and 1 mL methanol. The samples were vigorously vortexed and centrifuged at 10,770× g for 3 min. Next, 100 µL of the upper layer was transferred to a polypropylene tube with 10 µL of the internal standard and 400 µL of methanol. After vigorous vortexing and centrifugation at 2191× g for 1 min, 100 µL of the upper layer was transferred to another polypropylene tube containing 300 µL of formic acid in distilled water (0.1%, w/v). A 20 µL aliquot of the solution was finally injected into the LC–MS/MS system; 0.1% ammonium formate in distilled water and acetonitrile was used as the mobile phase. […] Linagliptin was quantified using MRM mode. […] The intra-day and inter-day CV values were <15%. The LLOQ with this method was 0.04 ng/mL. […]

[4] = tested on: cytochrome P450 3A4 enzyme; details: in humans; cited from earlier work
[5] = IC: co-administered single oral doses of Forxiga 10 mg and Trajenta 5 mg, fasted healthy males, mean ± SD
[6] = IC: co-administered single oral doses of Forxiga 10 mg and Trajenta 5 mg, fasted healthy males, 0 to 72 h, mean ± SD
[7] = IC: co-administered single oral doses of Forxiga 10 mg and Trajenta 5 mg, fasted healthy males, median (range)

Structure (SMILES) | food effect [1] | Intra-Participant CV% of AUCinf [3] [%] | Intra-Participant CV% of AUClast [3] [%] | Intra-Participant CV% of Cmax [3] [%] | AUC(0-inf) ([3]; po, 5 mg) [ng·h/mL] | AUC(0-t) ([3]; po, 5 mg) [ng·h/mL] | Cmax ([3]; po, 5 mg) [ng/mL] | Tmax ([3]; po, 5 mg) [h] | half-life ([3]; po, 5 mg) [h] | AUC(0-t) [3, 6] [ng·h/mL] | AUC(0-inf) [3, 5] [ng·h/mL] | Cmax [3, 5] [ng/mL] | half-life [3, 5] [h] | Tmax [3, 7] [h] | further results
N#C[C@@H]1C[C@@H]2C[C@@H]2N1C(=O)[C@@H](N)C12CC3CC(CC(O)(C3)C1)C2 [saxagliptin] |  |  |  |  |  |  |  |  |  |  |  |  |  |  | half-life, metabolite ([1]; metabolite of saxagliptin): 3.1 h
CCOc1ccc(Cc2cc([C@@H]3O[C@H](CO)[C@@H](O)[C@H](O)[C@H]3O)ccc2Cl)cc1 [dapagliflozin] | no possible food effect | 7.35 | 7.91 | 20.49 | 516 ± 98.3 | 466 ± 99.3 | 168 ± 42.1 | 0.75 | 12.8 ± 3.84 | 456 ± 92.8 | 500 ± 93.9 | 161 ± 42 | 11.3 ± 3.39 | 0.75 | fraction metabolized by uridine diphosphate glucuronosyltransferase 1A9 [2]: approximately 65%; SGLT2:SGLT1 receptor selectivity (SGLT2:SGLT1 receptor): lower SGLT2:SGLT1 receptor selectivity; half-life (t1/2) [1]: 8.1 to 12.2 h; P-gp inhibitor status (P-gp; in vitro studies): not an inhibitor; P-gp substrate status (P-gp; in vitro studies): weak substrate; CL/F ([3]; FCDP: single oral dose IN-C009 (dapagliflozin 10 mg/linagliptin 5 mg), fasted healthy males, mean ± SD): 20.01 ± 3.6 L/h; CL/F [3, 5]: 20.67 ± 3.89 L/h
CC#CCn1c(N2CCC[C@@H](N)C2)nc2c1c(=O)n(Cc1nc(C)c3ccccc3n1)c(=O)n2C [linagliptin] | no possible food effect | 12.67 | 7.96 | 27.58 | 268 ± 88 | 157 ± 35.9 | 4.2 ± 2.01 | 1.5 | 54.3 ± 12.3 | 155 ± 30.4 | 266 ± 78.7 | 3.95 ± 1.42 | 54.9 ± 13.6 | 2.5 | oral bioavailability [1]: approximately 30%; kidney excretion ([1]; human, in vivo): 5%; time to reach steady-state level ([1]; therapeutic dose (5 mg)): ≤ 4 days; P-gp inhibition (P-gp; at the therapeutic levels): does not inhibit P-gp; Km of P-gp associated transport (P-gp): 187 µM; substrate for P-glycoprotein (P-gp) (P-gp; in humans): known substrate; substrate for cytochrome P450 3A4 enzyme [4]: known substrate
